The target in test [1] is T1, recombinant human G9a protein (Homo sapiens, UniProt Q96KQ7).
T1 construct: purchased BPS Bioscience Inc. #51001
T1 sequence (Q96KQ7 785-1210 limits assumed): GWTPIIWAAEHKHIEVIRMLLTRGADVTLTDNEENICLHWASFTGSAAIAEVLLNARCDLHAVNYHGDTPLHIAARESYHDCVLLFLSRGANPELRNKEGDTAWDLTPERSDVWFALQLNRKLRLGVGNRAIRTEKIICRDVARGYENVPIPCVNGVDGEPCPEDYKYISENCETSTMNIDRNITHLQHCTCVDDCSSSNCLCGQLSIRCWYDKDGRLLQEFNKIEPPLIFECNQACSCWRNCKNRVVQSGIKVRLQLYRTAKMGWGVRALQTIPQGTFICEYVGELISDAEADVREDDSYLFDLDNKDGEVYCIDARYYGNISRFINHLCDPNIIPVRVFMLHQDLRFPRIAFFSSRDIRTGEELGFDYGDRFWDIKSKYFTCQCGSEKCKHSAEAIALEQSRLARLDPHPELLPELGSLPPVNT
Description: G9a inhibitory activity test (ALPHA). Format: biochemical. The following applies: read-out: Inhibitory activity (G9a IC50). In a few lines: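 Human G9a (0.05 to 0.1 nM) in Tris pH 9.0 buffer preincubated with compound 10 min, then biotinylated histone H3 (1-21) peptide and SAM mixed 1:1 from 500 nM and 150 μM solutions, 1 h at room temperature. H3K9me2 detected by AlphaLISA acceptor/streptavidin donor beads; IC50 from percent inhibition relative to no-compound and no-enzyme controls.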

Test [2] has as its system intracellular histone H3K9 dimethylation level in human lung cancer cell line NCI-H460. The test is described as follows: Histone H3K9 dimethylation inhibitory activity test (Western blotting). Format: cell-based. The following applies: NCI-H460 cells, 72 hours. Here is the method:
The inhibitory activity of each compound against G9a was evaluated by adding the compound to a human lung cancer cell line NCI-H460, and detecting change in intracellular histone H3K9 dimethylation level by Western blotting. The NCI-H460 cells were cultured in a DMEM medium (FUJIFILM Wako Pure Chemical Corp., 044-29765) containing 10% fetal bovine serum and 4 mM glutamine. The cultured cells were washed with PBS and then detached with trypsin/EDTA, and the cell suspension was adjusted to 2.5×10^4 cells/mL. The cell suspension was inoculated at 500 μL/well to a 24-well microplate (Thermo Fisher Scientific, Inc., 142475) and cultured overnight under conditions of 37° C. and 5% CO2. On the next day, the test compound (solution in DMSO) was added at 0.5 µL/well and reacted for 72 hours under conditions of 37° C. and 5% CO2. DMSO was added at 0.5 μL/well to control wells (final DMSO concentration: 0.1%). The medium was removed, and the cells were washed with PBS. Then, a 2×SDS-PAGE sample buffer (100 mM Tris-HCl (pH 6.8), 4% sodium lauryl sulfate, 2% 2-mercaptoethanol, 20% glycerol, 0.005% bromophenol blue) was added at 50 μL/well to prepare a sample. The recovered sample was heated at 95 to 100° C. for 10 minutes, and protein was separated by polyacrylamide gel electrophoresis (SDS-PAGE). Subsequently, the separated protein was transferred to a polyvinylidene fluoride (PVDF) membrane by semi-dry blotting. The PVDF membrane was dipped in 3% skimmed milk (dissolved in PBS containing 0.05% Tween 20 (PBST)), blocked at room temperature for 30 to 60 minutes, then dipped in an anti-dimethylated histone H3K9 antibody (Abcam plc, ab1220) diluted 1000-fold with 3% skimmed milk, and reacted overnight at 4° C. On the next day, the PVDF membrane was washed three times with PBST, then dipped in a HRP (horseradish peroxidase)-labeled anti-mouse IgG antibody diluted 10000-fold with skimmed milk, and reacted at room temperature for 1 hour. The PVDF membrane was washed three times with PBST, then dipped in chemiluminescent substrate solution Immobilon Western Chemiluminescent HRP Substrate (Merck Millipore, WBKLS0500), incubated at room temperature for 5 minutes, and photographed with Lumino Image Analyzer (GE Healthcare Japan Corp., ImageQuant LAS4000).
Then, the antibody was stripped from the PVDF membrane using re-probe reagent EzReprobe (ATTO Corp., WSE-7240), and trimethylated histone H3K9 and histone H3 were detected by the same procedures as above. An anti-trimethyl histone H3K9 antibody (39161, diluted 1000-fold) from Active Motif, Inc. and an anti-histone H3 antibody (ab1791, diluted 2000-fold) from Abcam plc were used in the detection. The band of each protein was quantified from the taken image using image processing software ImageJ (NIH). The ratios of dimethylated histone H3K9 and trimethylated histone H3K9 to the histone H3 protein were calculated with the numeric value of a compound-unsupplemented sample defined as 100%. A compound concentration at which the ratio of dimethylated histone H3K9 was 50% was calculated as a 50% inhibition concentration (IC50 value) using data analysis software Origin (LightStone Corp.).

The subject of test [3] is human lung cancer cell line NCI-H460. Description: Colony formation inhibition test. Format: cell-based. The following applies: 288 h, NCI-H460 cells, culture for 12 days, read-out: Inhibitory activity (colony formation GI50). How it is done:
Each compound was evaluated for its colony formation inhibitory activity against a human lung cancer cell line NCI-H460. The NCI-H460 cells were cultured in a DMEM medium (FUJIFILM Wako Pure Chemical Corp., 044-29765) containing 10% fetal bovine serum and 4 mM glutamine. The cultured cells were washed with PBS, then detached with trypsin/EDTA, and adjusted to 2×10^3 cells/mL to prepare a cell suspension. The cell suspension was inoculated at 1 mL/well to a 12-well microplate (Corning Inc., 3513), and the test compound (DMSO solution) was added at 1 μL/well, followed by culture for 12 days under conditions of 37° C. and 5% CO2. DMSO was added at 1 μL/well to control wells with a final DMSO concentration set to 0.1%. The medium was discarded every day or every two days, and a fresh medium was added at 1 mL/well. The test compound or DMSO was added at 1 μL/well. The proportion of a colony of each well was measured using a high-speed cell imaging system (Tomy Digital Biology Co., Ltd., Celigo). The ratio of the colony in each compound-supplemented group was determined with the ratio of the colony formed in a test compound solution-unsupplemented well defined as 1. A compound concentration necessary for suppressing the rate of colony formation by 50% of the control (GI50) was calculated using data analysis software Origin (LightStone Crop.).

Take `CCCC[C@H](NC(=O)c1[nH]c2c(c1C)C(=O)CC(C)(C)C2)c1nc2ccc(OC3CCNCC3)cc2[nH]1` [Example 35-1, (S)-3,6,6-trimethyl-4-oxo-N-(1-(6-(piperidin-4-yloxy)-1H-benzo[d]imidazol-2-yl)pentyl)-4,5,6,7-tetrahydro-1H-indole-2-carboxamide]: the 50% inhibitory concentration (IC50) was 50 to 200 nM in test [1] and at least 500 nM in test [2]. Moreover, the 50% growth inhibitory concentration (GI50) in test [3] is at least 1000 nM.
The corresponding values for `CCCC[C@H](NC(=O)c1[nH]c2c(c1C)C(=O)CC(C)(C)C2)c1nc2ccc(OCC3CCNCC3)cc2[nH]1` [Example 35-2] are under 50 nM, at least 500 nM and at least 1000 nM.

The values above are taken from patent publication US20230127046A1, “G9a INHIBITOR” (RIKEN, priority 2019, published 2023).
